Experimental findings from paper PMC5565192, “Larrea tridentata: A novel source for anti-parasitic agents active against Entamoeba histolytica, Giardia lamblia and Naegleria fowleri” (PLoS Neglected Tropical Diseases, 2017) are described below.

pEC50: −log10 of the molar value. Like-named read-outs stand apart in the source and are kept apart here.

For experiment [1], the system named is G. lamblia WB trophozoites. Nature of the experiment: Parasite assay, CellTiter-Glo EC50 dose response, G. lamblia trophozoites. It counts as cell-based, Giardia lamblia. The note with it: for pEC50: read-out: G. lamblia EC50; for EC50: read-out: G. lamblia pEC50 ± SE (converted); for loss of activity compared to 3, G. lamblia: SAR comparison with compound 3. On the procedure:
(§1) Trophozoites of E. histolytica HM1: IMSS and G. lamblia WB strains were axenically maintained in TYI-S-33 medium supplemented with penicillin (100 U/ml), streptomycin (100 μg/ml). Trophozoites of N. fowleri strain KUL were axenically cultured in Nelson’s medium supplemented with 10% FBS at 37°C [45]. All experiments were performed using trophozoites harvested during the logarithmic phase of growth. Four solvent partitioned fractions of an aqueous methanolic extract of L. tridentata and compounds 1–9 were screened for activity against E. histolytica, G. lamblia, and N. fowleri. For primary screening, the positive control for E. histolytica and G. lamblia was 5 μg/mL of metronidazole (Sigma-Aldrich) and 46 μg/mL of amphotericin B for N. fowleri (Sigma-Aldrich). Test samples were diluted to 10 mg/mL of extracts, HPLC fractions, and pure compounds in DMSO. Finally, 0.5 μL of diluted sample was transferred to white, solid bottom tissue culture 96-well plates (E&K Scientific) followed by addition of 99.5 μL trophozoites (5,000 E. histolytica and G. lamblia, and 10,000 N. fowleri) in TYI-S-33 medium or Nelson’s medium. The final concentration for test compounds was 50 μg/mL and 0.5% DMSO, which was the negative control and compound vehicle that we have shown has no effect the growth rate of trophozoites. Assay plates were incubated for 48 h at 37°C. E. histolytica and G. lamblia plates were kept in the GasPak EZ Anaerobe Gas Generating Pouch System (VWR) to maintain anaerobic condition throughout the incubation period. Screening was performed in duplicate using the CellTiter-Glo assay (Promega) and luminescence was measured using an EnVision plate reader (PerkinElmer).
(§2) The antiparasitic activity of 1–6 and 9 were confirmed by EC50 dose response experiments, using the CellTiter-Glo assay, conducted in triplicate over a concentration range from 5-to-700 μM against trophozoites (Table 3). Miltefosine and metronidazole, current drugs for the treatment of PAM and amebiasis and giardiasis were also tested in triplicate as positive controls for EC50 determination (Table 3). Dose response curves including standard deviation (SD) calculation were processed using GraphPad Prism software 5.0. Percent inhibition relative to maximum and minimum reference signal controls was calculated using the formula: % Inhibition = [(mean of Maximum Signal Reference Control—Experimental Value)/(mean of Maximum Signal Reference Control—mean of Minimum Signal Reference Control)] × 100.

Experiment [2] deals with E. histolytica HM1: IMSS trophozoites. In words: Parasite assay, CellTiter-Glo EC50 dose response, E. histolytica trophozoites. It counts as cell-based, Entamoeba histolytica. The note with it: for pEC50 / EC50: 48 h; for pEC50: read-out: E. histolytica EC50; for EC50: read-out: E. histolytica pEC50 ± SE (converted). As to the method: as §1, §2
The test system of experiment [3] is N. fowleri strain KUL trophozoites. In words: Parasite assay, CellTiter-Glo EC50 dose response, N. fowleri trophozoites. It counts as cell-based, Naegleria fowleri. The note with it: for pEC50: read-out: N. fowleri EC50; for EC50: read-out: N. fowleri pEC50 ± SE (converted). On the procedure: as §1, §2
Experiment [4] has as its system N. fowleri cysteine protease. Nature of the experiment: Cysteine protease activity assay in N. fowleri crude lysate (Z-Phe-Arg-AMC). The settings on record: at 1.875 μM, total crude lysate of N. fowleri. It counts as biochemical, Naegleria fowleri. As to the method:
To prepare the cell lysate, N. fowleri trophozoites were removed from the culture flask surface by incubating in an ice bath for 10 min, centrifuged at 300 g for 10 min, and washed twice with PBS (pH 7.2). The cells were disrupted by four cycles of freeze thawing in PBS [51]. Protein concentration was quantified by the method of Bradford (Bio-Rad). The activity of the cysteine protease present in the crude extract after incubating in presence and absence of different concentrations of compounds 1 and 2 was assayed by the liberation of the fluorescent leaving group, 7-amino-4-methyl coumarin (AMC), from the peptide substrate Z–Phe–Arg–AMC (40 μM) (where Z is benzyloxycarbonyl, R&D Systems). The assay was performed at 25°C in an automated microtiter plate spectrofluorometer (EnVision, PerkinElmer) with excitation wavelength at 355 nm and emission wavelength at 460 nm. Enzyme samples were added to the reactivation buffer (10 mM Tris, 5 mM EDTA, 50 mM NaCl, pH 7.4, 10 mM DTT), and preincubated for 20 min at 37°C prior to the hydrolysis of substrate. The rate of substrate hydrolysis at ambient temperature was determined from the rate of increase of fluorescence, monitored on a continuously recording spectrofluorometer and measured as RFU/min/μg protein.

In experiment [5] the test system is HUVEC-TERT2 cell line. Nature of the experiment: HUVEC cell cytotoxicity (CellTiter-Glo, 48 h). The experiment is classed as cell-based, human. The settings on record: for fold less toxic to human cells compared to N. fowleri: HUVEC EC50 versus N. fowleri EC50, P<0.0001; for pEC50: Homo sapiens, HUVEC, 48 h, CellTiter-Glo, read-out: EC50 inhibition of HUVEC cell viability. As to the method:
The HUVEC-TERT2 cell line was purchased from Evercyte GmbH (Vienna, Austria) and cultured and maintained in endothelial cell basal medium (Lonza) as described previously. Briefly, cells were seeded into a white 384-well solid bottom plate (Nunc, ThermoFisher) at a density of 1000 cells/well in 39 μL of media using a Janus liquid handler (PerkinElmer). Serial dilutions using 1 μL of compound 1 and 2 at varying concentrations were dispensed into each well in triplicate. After 48 h incubation, 40 μL of CellTiter-Glo reagent (Promega) was added into each well. The contents were mixed for 2 min on a microplate shaker to induce cell lysis and further incubated at room temperature for 10 min to stabilize the luminescent signal. Luminescence was measured with an EnVision plate reader (PerkinElmer) and %inhibition calculations were performed using the following formula for single-point normalization: %Inhibition = (1-Raw Sample Value/Mean of DMSO Signal Reference Value) × 100. Dose response curves including EC50 calculations were processed using GraphPad Prism software.

The subject of experiment [6] is E. histolytica, G. lamblia, and N. fowleri trophozoites. Nature of the experiment: Antiparasitic activity, statements for all three pathogens together (CellTiter-Glo). The settings on record: for antiparasitic activity against the three pathogens (in words): E. histolytica, N. fowleri trophozoites. It counts as cell-based. As to the method: as §1, §2
Setting [7] is: trophozoites, 48 h, minimum n = 3.
Setting [8] is: Giardia duodenalis, trophozoites, 48 h, minimum n = 3.
Where [9] appears, read: Entamoeba histolytica, trophozoites, minimum n = 3.
[10] abbreviates: Naegleria fowleri, 48 h, trophozoites, 48 h, minimum n = 3.

Consider “3-Methoxy-6, 7, 4’-trihydroxyflavonol [Compound 9]”, for which, in experiment [1] (setting [7]), the “G. lamblia pEC50 ± SE” value worked out at 3.8 ± 0.02. For the same compound, the pEC50 in experiment [1] (setting [7]) is 3.82; in experiment [2] (trophozoites, minimum n = 3), under 3.78; in experiment [3] (setting [7]) it was 3.63. In addition, in experiment [3] (setting [7]), the “N. fowleri pEC50 ± SE” value is 3.6 ± 0.02.

With `C[C@H](Cc1ccc(O)c(O)c1)[C@@H](C)Cc1ccc(O)c(O)c1` [Compound 1, nordihydroguairetic acid], the pEC50 in experiment [1] (setting [8]) was 4.44; in experiment [2] (setting [9]), 3.99; in experiment [3] (setting [10]) it was 4.44; in experiment [3] (setting [7]), 4.43; in experiment [5] it was 4.07. In addition, the EC50 was 39.8 µM in experiment [1] (setting [8]), 100 µM in experiment [2] (setting [9]) and 39.8 µM in experiment [3] (setting [10]). The “inhibition of cysteine protease activity” value in experiment [4] is given as about 50%. The “fold less toxic to human cells compared to N. fowleri” value in experiment [5] was 2.4 fold.

For `COc1cc(C[C@@H](C)[C@@H](C)Cc2ccc(O)c(O)c2)ccc1O` [Compound 2, 3’-O-methylnordihydroguairetic acid], the pEC50 in experiment [1] (setting [8]) was 4.42; in experiment [2] (setting [9]) it was 3.77; in experiment [3] (setting [10]), 4.42; in experiment [5], 4.23. Moreover, the EC50 is 39.8 µM in experiment [1] (setting [8]), 158 µM in experiment [2] (setting [9]) and 39.8 µM in experiment [3] (setting [10]). Moreover, the “inhibition of cysteine protease activity” value in experiment [4] is on record as about 50%. For the same compound, the “fold less toxic to human cells compared to N. fowleri” value in experiment [5] is 1.6 fold.

For `C[C@H]1[C@H](c2ccc(O)cc2)c2cc(O)c(O)cc2C[C@H]1C` [Compound 3, Nor-3’-demethoxyisoguaiacin], the pEC50 in experiment [1] (setting [8]) is 4.31; in experiment [2] (setting [9]) it was 4.03; in experiment [3] (setting [10]), 4.14. For the same compound, the EC50 is 50.1 µM in experiment [1] (setting [8]), 100 µM in experiment [2] (setting [9]) and 79.4 µM in experiment [3] (setting [10]).

As for `COc1cc([C@@H]2c3cc(O)c(O)cc3C[C@@H](C)[C@H]2C)ccc1O` [Compound 4, Nor-isoguaicin], the pEC50 was 4.13 in experiment [1] (setting [8]); 4.08 in experiment [2] (setting [9]); 4.08 to 4.13 in experiment [6] (span over E. histolytica, N. fowleri, read-out: EC50 values against all three pathogens); 4.12 in experiment [3] (setting [10]). Besides, the EC50 in experiment [1] (setting [8]), in experiment [2] (setting [9]) and in experiment [3] (setting [10]) was 79.4 µM throughout. In addition, the “loss of activity compared to 3, G. lamblia” value in experiment [1] is on record as ~ 2 fold.

`COc1cc2c(cc1O)C[C@@H](C)[C@@H](C)[C@@H]2c1ccc(O)cc1` [Compound 5, 3’-Demethoxyisoguaiacin]: the pEC50 in experiment [1] (setting [8]) was 3.73; in experiment [2] (setting [9]), 3.63; in experiment [3] (setting [10]), 3.81. For the same compound, the EC50 in experiment [1] (setting [8]) is 200 µM; in experiment [2] (setting [9]), 251 µM; in experiment [3] (setting [10]), 158 µM. Further, the “loss of activity compared to 3, G. lamblia” value in experiment [1] is reported as 4 fold. For the same compound, in experiment [2] (SAR comparison with compound 3), the “loss of activity compared to 3, E. histolytica” value is ~ 3 fold. Moreover, in experiment [6], the “antiparasitic activity against the three pathogens (in words)” value (“antiparasitic activity” for short) is reported as “comparatively weak activity”. Moreover, the “loss of activity compared to 3, N. fowleri” value in experiment [3] (SAR comparison with compound 3) is recorded as ~ 2 fold.

For `C[C@H]1[C@H](c2ccc(O)c(O)c2)c2cc(O)c(O)cc2C[C@H]1C` [Compound 6, 6,3'-Di-O-demethylisoguaiacin], the pEC50 is 4.02 in experiment [1] (setting [8]), 3.84 in experiment [2] (setting [9]) and 3.82 in experiment [3] (setting [10]). Besides, the figures for the EC50 in experiment [1] (setting [8]), in experiment [2] (setting [9]) and in experiment [3] (setting [10]) were 100 µM, 158 µM and 158 µM, respectively. For the same compound, the “antiparasitic activity” value in experiment [6] is on record as “comparatively weak activity”.

For `C[C@@H]1[C@@H](C)[C@H](c2ccc(O)c(O)c2)O[C@H]1c1ccc(O)cc1` [Compound 7, 3-hydroxy-4-epi-larreatricin], the negative-log EC50 (pEC50) in experiment [1] (Giardia duodenalis, 48 h) was under 3.78; in experiment [2] (Entamoeba histolytica), under 3.78; in experiment [3] (Naegleria fowleri, 48 h), under 3.78. For the same compound, in experiment [6], the “antiparasitic activity” value is given as “no antiparasitic activity”.

With `C[C@@H]1[C@H](C)[C@H](c2ccc(O)cc2)O[C@H]1c1ccc(O)c(O)c1` [Compound 8, (7R, 7’R)-7, 7’-bis(4’, 3,4-trihydroxyphenyl)-(8R, 8’S)-8, 8’-dimethyltetrahydrofuran], the pEC50 in experiment [1] (Giardia duodenalis, 48 h) was under 3.78; in experiment [2] (Entamoeba histolytica), under 3.78; in experiment [3] (Naegleria fowleri, 48 h), under 3.78. The “antiparasitic activity” value in experiment [6] is “no antiparasitic activity”.

As for `Cc1ncc([N+](=O)[O-])n1CCO` [Metronidazole, reference compound], in experiment [1] (setting [8]), the pEC50 was 5.19 and the EC50 is 6.31 µM. Further, in experiment [2] (setting [9]), the pEC50 is 5.30 and the EC50 was 5.01 µM.

As for `CCCCCCCCCCCCCCCCOP(=O)([O-])OCC[N+](C)(C)C` [Miltefosine, reference compound], in experiment [3] (setting [10]), the pEC50 was 4.26 and the EC50 is 50.1 µM.
